Laboratory results from patent US20240342148A1, “METHODS OF TREATING FACIOSCAPULOHUMERAL MUSCULAR DYSTROPHY WITH LOSMAPIMOD” (Fulcrum Therapeutics, Inc., priority 2021, published 2024).

System: p38a/b MAPK pathway
Experiment: Target engagement in blood: pHSP27/HSP27total ELISA after ex vivo sorbitol stimulation
Design: species or system human
Experimental: Blood samples for target engagement were collected at D1 and Wk16 or Wk36, at the same pre- and post-dose time points as PK samples.
Blood samples for measurement of total heat shock protein 27 (HSP27total) and phosphorylated heat shock protein 27 (pHSP27) were collected into EDTA-containing tubes. Two mL of whole blood was stimulated ex vivo with sorbitol for 30 minutes at room temperature to induce phosphorylation of HSP27 as a measure of p38a/b MAPK activity. Sorbitol stimulation activates the p38a/b MAPK pathway in blood and allows for more robust detection of inhibition of the p38a/b MAPK pathway by losmapimod. Subsequently, samples were lysed on ice and lysates frozen at −80° C. pHSP27 and HSP27total were measured by a validated enzyme-linked immunosorbent assay method (Cambridge Biomedical Inc., Boston, MA, USA and Immunologix, Tampa, FL, USA). Inter- and intra-assay precision for both pHSP27 and HSP27total met the preapproved criteria of <25% CV having been run in 5 replicates with the LLOQ established for pHSP27 at 20.7 ng/ml and ULOQ at 470.1 ng/ml and the LLOQ established for HSP27total at 105.2 ng/ml and ULOQ at 2168.1 ng/mL.

In the case of Cc1c(F)cc(C(=O)NC2CC2)cc1-c1ccc(C(=O)NCC(C)(C)C)cn1 [losmapimod, 6-(5-cyclopropylcarbamoyl-3-fluoro-2-methyl-phenyl)-N-(2,2-dimethylpropyl-)-nicotinamide], the “Reduction of pHSP27/HSP27total compared to placebo at Cmax” value is reported as 48.0-70.2%.
